From patent US8901118B2, “Compounds and methods for kinase modulation, and indications therefor” (Plexxikon Inc., priority 2010, dated 2014)

Key:
[1] = tested on: Osteoclast precursor cells; assay: Osteoclast differentiation assay (acid phosphatase readout); type: cell-based
Description: Further, an osteoclast differentiation assay is used to assess the efficacy of Fms inhibitors for treating bone disease such as osteoarthritis. On day 0, Osteoclast Medium BulletKit (Lonza catalog #PT-8001, containing Media, FBS, L-Glutamine, PenStrep, RANKL, and M-CSF) media is thawed and the FBS, L-glutamine and PenStrep from the kit is added to 100 mL of Osteoclast Precursor Basal medium to provide the Osteoclast Precursor Growth Medium (OPGM). This is warmed to 37° C. Osteoclast precursor cells (Lonza catalog #2T-110) frozen in cryovial are warmed to 37° C. and transferred to a 50 mL conical tube. The cryovial is rinsed with OPGM and added dropwise to the conical tube of cells with swirling, then the volume is adjusted to 20-30 mL with addition of OPGM. The cells are centrifuged at 200×g for 15 minutes at room temperature and all but approximately 3 mL of supernatant is removed to a new conical tube. The cells are suspended in the remaining supernatant and the volume is adjusted to 10-15 mL with OPGM added dropwise with swirling. The cells are centrifuged at 200×g for 15 minutes at room temperature and all but approximately 1 mL of supernatant is removed. The cells are resuspended in the remaining supernatant, counted, and the volume adjusted with an appropriate amount of OPGM to provide approximately 1×10^5 cells/mL. A 0.1 mL aliquot of cells is added to each well of a 96-well plate. Compound to be tested is prepared in DMSO for plating at a high concentration of 2.5 mM, with 8 point 1:3 serial dilutions. A 1 μL aliquot of each compound dilution is added to a 96 well v-bottom polypropylene plate and 0.124 mL of OPGM is added to the compound. Then 50 μL at of the compound in OPGM is added to the osteoclast precursor cells in 96-well plate (providing highest test concentration of 5 μM). RANKL (2 μg) from the BulletKit is reconstituted in 1 mL of OPGM, then vortexed and centrifuged briefly. A 792 μL at aliquot of RANKL is added to 6 mL of OPGM and 50 μL at is added to low control wells. Then 76.6 μL M-CSF (10 μg/mL) from the BulletKit is added to the remaining 5.8 mL of OPGM/RANKL solution (4×RANKL/M-CSF/OPGM). A 50 μL at aliquot of this is added to the remaining wells, and the remainder is stored at 4° C. for later use. The plate is incubated at 37° C. for 6 days, then the remaining OPGM/RANKL/M-CSF solution is warmed to 37° C. The remaining approximately 198 μL is combined with 6 mL of OPGM. The media is aspirated from the osteoclast wells and 100 μL of RANKL/OPGM is added to the low controls. The remaining RANKL/OPGM is combined with the approximately 18.5 μL of remaining M-CSF. The remaining 4×RANKL/M-CSF/OPGM from day 0 is diluted to 1× and combined with the freshly prepared solution. A 0.1 mL aliquot of this is added to each osteoclast well and incubated for 37° C. for 1 day. The Acid Phosphatase kit (Cayman Chemical catalog #10008051) is warmed to room temperature. The assay buffer is diluted 5 mL with 45 mL of water. For each plate, two substrate tablets are dissolved in 4.5 mL of the assay buffer, mixing by vortex to break up the tablet. Stop solution is diluted 12 mL with 36 mL of water. In a tissue culture hood, 20 μL of each osteoclast well supernatant is transferred to a 96 well plate. A 30 μL aliquot of the substrate solution is added to each well and incubated at 37° C. for 20 minutes, then added 100 μL stop solution to each well. The absorbance of each well is read at 405 nm on Safire plate reader. The absorbance reading is plotted vs. concentration to provide the IC50 for each compound.

[2] = Relative solubility by turbidity in aqueous buffers (pH 1.5, 4.5, 6.8, 7.4); type: physicochemical; details: for turbidity threshold (L, M, H) 1.4: pH 1.5 (SGF); for turbidity threshold (L, M, H) 4.5: pH 4.5 (SIF); for turbidity threshold (L, M, H) 6.8: pH 6.8 (SIF); for turbidity threshold (L, M, H) 7.4: pH 7.4 (HEPES)
How it was run: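 Reported value: concentration at which optical density at 490, 535 and 650 nm passes 0.01, taken as the mean of the three wavelengths. Buffers were 0.5M NaCl pH 1.5, 0.05M NaH2PO4 pH 4.5 or 6.8, and 10 mM HEPES/150 mM NaCl pH 7.4, each receiving serial 1:1 DMSO dilutions of a 25 mM stock.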

Row | Structure (SMILES) | IC50 [1] [nM] | turbidity threshold (L, M, H) 1.4 [2] | turbidity threshold (L, M, H) 4.5 [2] | turbidity threshold (L, M, H) 6.8 [2] | turbidity threshold (L, M, H) 7.4 [2]
1 | COc1ccc(Nc2ccc(Cc3c[nH]c4ncnc(C5CC5)c34)c(F)n2)cn1 [Compound P-4023, [5-(4-cyclopropyl-7H-pyrrolo[2,3-d]pyrimidin-5-ylmethyl)-6-fluoro-pyridin-2-yl]-(6-methoxy-pyridin-3-yl)-amine] | < 100 | H (high solubility if the threshold concentration is >250 μm) | M (moderate solubility if the threshold concentration is 31.3 μM to 250 μM) | L (low solubility if the threshold concentration is <31.3 μM) | L (low solubility if the threshold concentration is <31.3 μM)
2 | CCn1cc(Nc2ccc(Cc3c[nH]c4ncnc(C)c34)c(F)n2)cn1 [Compound P-4013, (1-Ethyl-1H-pyrazol-4-yl)-[6-fluoro-5-(4-methyl-7H-pyrrolo[2,3-d]pyrimidin-5-ylmethyl)-pyridin-2-yl]-amine] | < 100 | H (high solubility if the threshold concentration is >250 μm) | M (moderate solubility if the threshold concentration is 31.3 μM to 250 μM) | M (moderate solubility if the threshold concentration is 31.3 μM to 250 μM) | M (moderate solubility if the threshold concentration is 31.3 μM to 250 μM)
3 | FC1(F)CCC(Nc2ncc(Cc3c[nH]c4ncc(Cl)cc34)cn2)CC1 [Compound P-3004] | < 100 | H (high solubility if the threshold concentration is >250 μm) | L (low solubility if the threshold concentration is <31.3 μM) | L (low solubility if the threshold concentration is <31.3 μM) | L (low solubility if the threshold concentration is <31.3 μM)
4 | CCOc1ccc(Nc2ccc(Cc3c[nH]c4ncnc(OCCOC)c34)c(F)n2)cn1 [Compound P-4008, (6-Ethoxy-pyridin-3-yl)-{6-fluoro-5-[4-(2-methoxy-ethoxy)-7H-pyrrolo[2,3-d]pyrimidin-5-ylmethyl]-pyridin-2-yl}-amine] | < 100 | M (moderate solubility if the threshold concentration is 31.3 μM to 250 μM) | M (moderate solubility if the threshold concentration is 31.3 μM to 250 μM) | M (moderate solubility if the threshold concentration is 31.3 μM to 250 μM) | M (moderate solubility if the threshold concentration is 31.3 μM to 250 μM)
5 | CCc1ccc(Nc2ccc(Cc3c[nH]c4ncnc(C)c34)c(F)n2)cn1 [Compound P-4009, (6-Ethyl-pyridin-3-yl)-[6-fluoro-5-(4-methyl-7H-pyrrolo[2,3-d]pyrimidin-5-ylmethyl)-pyridin-2-yl]-amine] | < 100 | H (high solubility if the threshold concentration is >250 μm) | M (moderate solubility if the threshold concentration is 31.3 μM to 250 μM) | L (low solubility if the threshold concentration is <31.3 μM) | L (low solubility if the threshold concentration is <31.3 μM)

Second part, led by results:

Row | IC50 [1] [nM] | Structure (SMILES) | turbidity threshold (L, M, H) 1.4 [2] | turbidity threshold (L, M, H) 4.5 [2] | turbidity threshold (L, M, H) 6.8 [2] | turbidity threshold (L, M, H) 7.4 [2]
6 | < 100 | COc1ccc(Nc2ccc(Cc3c[nH]c4ncc(C)cc34)c(F)n2)cn1 [Compound P-3019, [6-fluoro-5-(5-methyl-1H-pyrrolo[2,3-b]pyridin-3-ylmethyl)-pyridin-2-yl]-(6-methoxy-pyridin-3-yl)-amine] | H (high solubility if the threshold concentration is >250 μm) | L (low solubility if the threshold concentration is <31.3 μM) | L (low solubility if the threshold concentration is <31.3 μM) | L (low solubility if the threshold concentration is <31.3 μM)
7 | < 100 | CCc1ccc(Nc2ccc(Cc3c[nH]c4ncnc(OC)c34)c(F)n2)cn1 [Compound P-4007, (6-Ethyl-pyridin-3-yl)-[6-fluoro-5-(4-methoxy-7H-pyrrolo[2,3-d]pyrimidin-5-ylmethyl)-pyridin-2-yl]-amine] | M (moderate solubility if the threshold concentration is 31.3 μM to 250 μM) | L (low solubility if the threshold concentration is <31.3 μM) | L (low solubility if the threshold concentration is <31.3 μM) | L (low solubility if the threshold concentration is <31.3 μM)
8 | < 100 | CCOc1ccc(Nc2ccc(Cc3c[nH]c4ncnc(C)c34)c(F)n2)cn1 [Compound P-4006, (6-Ethoxy-pyridin-3-yl)-[6-fluoro-5-(4-methyl-7H-pyrrolo[2,3-d]pyrimidin-5-ylmethyl)-pyridin-2-yl]-amine] | H (high solubility if the threshold concentration is >250 μm) | L (low solubility if the threshold concentration is <31.3 μM) | L (low solubility if the threshold concentration is <31.3 μM) | L (low solubility if the threshold concentration is <31.3 μM)
9 | < 100 | CCOc1ccc(Nc2ccc(Cc3c[nH]c4ncnc(OC)c34)c(F)n2)cn1 [Compound P-4005, (6-Ethoxy-pyridin-3-yl)-[6-fluoro-5-(4-methoxy-7H-pyrrolo[2,3-d]pyrimidin-5-ylmethyl)-pyridin-2-yl]-amine] | M (moderate solubility if the threshold concentration is 31.3 μM to 250 μM) | L (low solubility if the threshold concentration is <31.3 μM) | L (low solubility if the threshold concentration is <31.3 μM) | L (low solubility if the threshold concentration is <31.3 μM)
10 | < 100 | CCn1cc(Nc2ccc(Cc3c[nH]c4ncnc(OC)c34)c(F)n2)cn1 [Compound P-4011, (1-Ethyl-1H-pyrazol-4-yl)-[6-fluoro-5-(4-methoxy-7H-pyrrolo[2,3-d]pyrimidin-5-ylmethyl)-pyridin-2-yl]-amine] | M (moderate solubility if the threshold concentration is 31.3 μM to 250 μM) | M (moderate solubility if the threshold concentration is 31.3 μM to 250 μM) | M (moderate solubility if the threshold concentration is 31.3 μM to 250 μM) | M (moderate solubility if the threshold concentration is 31.3 μM to 250 μM)
11 | < 100 | CCOc1ncnc2[nH]cc(Cc3ccc(Nc4cnn(CC)c4)nc3F)c12 [Compound P-4012, [5-(4-Ethoxy-7H-pyrrolo[2,3-d]pyrimidin-5-ylmethyl)-6-fluoro-pyridin-2-yl]-(1-ethyl-1H-pyrazol-4-yl)-amine] | M (moderate solubility if the threshold concentration is 31.3 μM to 250 μM) | L (low solubility if the threshold concentration is <31.3 μM) | L (low solubility if the threshold concentration is <31.3 μM) | L (low solubility if the threshold concentration is <31.3 μM)
